Reference: ChEMBL document CHEMBL5532736, “Novel Approaches for Upregulation of Tumor Suppressor Proteins: Pioneering Strategies and Integrative Potentials” (ACS Med Chem Lett, 2024)

What was measured:
[1] = molecular target: E3 ubiquitin-protein ligase Mdm2 (Homo sapiens) (UniProt Q00987); assay: Induction of MDM2 degradation in human EU-1 cells at 0.8 uM by Western blot analysis; assay type: cell-based; conditions: time <= 24.0 hrs, TDE = time-dependent effect
[2] = molecular target: E3 ubiquitin-protein ligase Mdm2 (Homo sapiens) (UniProt Q00987); assay: Induction of MDM2 degradation in human EU-1 cells assessed as increase in p53 level at 0.8 uM by Western blot analysis; assay type: cell-based; conditions: time <= 24.0 hrs, TDE = time-dependent effect
[3] = Cytotoxicity against human EU-1 cells assessed as inhibition of cell viability incubated for 24 to 72 hrs by CCK8 assay; assay type: functional, cell-based
[4] = molecular target: E3 ubiquitin-protein ligase Mdm2 (Homo sapiens) (UniProt Q00987); assay: Induction of MDM2 degradation in human EU-1 cells assessed as increase in p53 level incubated for 6 hrs by Western blot analysis; assay type: cell-based; conditions: dose <= 2.0 µM
[5] = molecular target: E3 ubiquitin-protein ligase Mdm2 (Homo sapiens) (UniProt Q00987); assay: Induction of MDM2 degradation in human EU-1 cells incubated for 6 hrs by Western blot analysis; assay type: cell-based; conditions: dose <= 2.0 µM

E3 ubiquitin-protein ligase Mdm2 (Homo sapiens), sequence (Q00987 whole entry, looked up): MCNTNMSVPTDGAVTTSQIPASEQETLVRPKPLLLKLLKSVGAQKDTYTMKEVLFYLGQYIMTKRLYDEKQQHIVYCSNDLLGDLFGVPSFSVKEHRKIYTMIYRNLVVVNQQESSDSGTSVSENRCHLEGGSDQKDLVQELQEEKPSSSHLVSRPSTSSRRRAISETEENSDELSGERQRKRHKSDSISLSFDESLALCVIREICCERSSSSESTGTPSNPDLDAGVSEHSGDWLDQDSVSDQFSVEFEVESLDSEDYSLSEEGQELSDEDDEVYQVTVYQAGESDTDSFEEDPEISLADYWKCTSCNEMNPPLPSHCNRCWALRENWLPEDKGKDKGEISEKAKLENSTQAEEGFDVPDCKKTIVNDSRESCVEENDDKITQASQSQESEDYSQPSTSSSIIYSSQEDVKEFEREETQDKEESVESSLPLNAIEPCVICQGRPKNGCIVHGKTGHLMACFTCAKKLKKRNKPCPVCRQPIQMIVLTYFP

Compound | IC50 [3] [nM] | also measured
CC(=O)CCCOc1cccc2c1C(=O)c1c(OCCCC(C)=O)cc(NC(=O)CCl)cc1C2=O | 430 | Activity [1]: Tde; Activity [2]: Tde; Activity [4]: Dose-Dependent Effect; Activity [5]: Dose-Dependent Effect
CC(=O)CCOc1cccc2c1C(=O)c1c(OCCC(C)=O)cc(NC(=O)CCl)cc1C2=O | 450 | –
CC(=O)CCCCOc1cccc2c1C(=O)c1c(OCCCCC(C)=O)cc(NC(=O)CCl)cc1C2=O | 790 | –
CC(=O)CCCOc1cc(NC(=O)CCl)cc2c1C(=O)c1c(O)cccc1C2=O | 840 | –
C=CC(=O)Nc1cc(OCCCC(C)=O)c2c(c1)C(=O)c1cccc(OCCCC(C)=O)c1C2=O | 6210 | –
O=C(CCl)Nc1cc(OCCO)c2c(c1)C(=O)c1cccc(OCCO)c1C2=O | 740 | –
CC(=O)CCCOc1cccc2c1C(=O)c1c(OCCCC(C)=O)cc(NC(C)=O)cc1C2=O | > 100000 | –
C=CS(=O)(=O)Nc1cc(OCCCC(C)=O)c2c(c1)C(=O)c1cccc(OCCCC(C)=O)c1C2=O | 3450 | –
C#CC(=O)Nc1cc(OCCCC(C)=O)c2c(c1)C(=O)c1cccc(OCCCC(C)=O)c1C2=O | 190 | –
